Measurements from the supplement of paper PMC10307832.

Compound: COc1cc(N2CCC(N3CCN(C)CC3)CC2)ccc1Nc1ncc(Cl)c(Nc2ccccc2S(=O)(=O)C(C)C)n1 [NVP-TAE684] + Cc1cc(Nc2cc(N3CCN(C)CC3)nc(Sc3ccc(NC(=O)C4CC4)cc3)n2)n[nH]1 [Tozasertib] (partner 0.1 µM)
Assay: relative viability (nuclei count vs DMSO), 5 days (fraction); higher = more cells survive
Outline: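 Five library-drug doses in √10 steps were combined with a fixed anchor-drug dose, or a single drug was given alone, by pin tool to lung cancer cell lines in 1536-well plates the day after seeding. Nuclei were stained and counted after 5 days. Relative viability is the nuclei count in treated wells over that in vehicle wells, taken as the median of duplicate plates.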

PC-3 [JPC-3] gave a relative viability (first compound 0.2 µM) of 0.926, a relative viability (first compound 0.6325 µM) of 0.86 and a relative viability (first compound 2 µM) of 0.584.

Cell Line NCI-H520 has a relative viability (first compound 0.2 µM) of 0.408, a relative viability (first compound 0.6325 µM) of 0.466 and a relative viability (first compound 2 µM) of 0.358.

For BEN, the relative viability (first compound 0.2 µM) was 0.513, the relative viability (first compound 0.6325 µM) was 0.492 and the relative viability (first compound 2 µM) was 0.392.

Cell Line COR-L 105 has a relative viability (first compound 0.2 µM) of 0.364, a relative viability (first compound 0.6325 µM) of 0.315 and a relative viability (first compound 2 µM) of 0.23.

NCI-H1734 showed a relative viability (first compound 0.2 µM) of 0.283, a relative viability (first compound 0.6325 µM) of 0.261 and a relative viability (first compound 2 µM) of 0.196.

For LOU-NH91, the relative viability (first compound 0.2 µM) was 0.622, the relative viability (first compound 0.6325 µM) was 0.576 and the relative viability (first compound 2 µM) was 0.475.

NCI-H2405 was tested, and the relative viability (first compound 0.2 µM) was 0.742, the relative viability (first compound 0.6325 µM) was 0.664 and the relative viability (first compound 2 µM) was 0.35.

HCC-15 showed a relative viability (first compound 0.2 µM) of 0.368, a relative viability (first compound 0.6325 µM) of 0.389 and a relative viability (first compound 2 µM) of 0.176.

HCC-44 was tested, and the relative viability (first compound 0.2 µM) was 1, the relative viability (first compound 0.6325 µM) was 0.848 and the relative viability (first compound 2 µM) was 0.338.

In the case of NCI-H2347, the relative viability (first compound 0.2 µM) was 0.59, the relative viability (first compound 0.6325 µM) was 0.487 and the relative viability (first compound 2 µM) was 0.359.

Work on SW 900 yielded a relative viability (first compound 0.2 µM) of 0.576, a relative viability (first compound 0.6325 µM) of 0.531 and a relative viability (first compound 2 µM) of 0.322.

RERF-LC-KJ gave a relative viability (first compound 0.2 µM) of 0.469, a relative viability (first compound 0.6325 µM) of 0.488 and a relative viability (first compound 2 µM) of 0.268.

Work on NCI-H522 yielded a relative viability (first compound 0.2 µM) of 0.53, a relative viability (first compound 0.6325 µM) of 0.692 and a relative viability (first compound 2 µM) of 0.509.

NCI-H1666 was tested, and the relative viability (first compound 0.2 µM) was 0.569, the relative viability (first compound 0.6325 µM) was 0.63 and the relative viability (first compound 2 µM) was 0.488.

Work on LC-2-ad yielded a relative viability (first compound 0.2 µM) of 0.448, a relative viability (first compound 0.6325 µM) of 0.377 and a relative viability (first compound 2 µM) of 0.286.

Cell Line NCI-H2023 has a relative viability (first compound 0.2 µM) of 0.413, a relative viability (first compound 0.6325 µM) of 0.332 and a relative viability (first compound 2 µM) of 0.103.

SK-LU-1 was tested, and the relative viability (first compound 0.2 µM) was 0.333, the relative viability (first compound 0.6325 µM) was 0.305 and the relative viability (first compound 2 µM) was 0.216.

In the case of LCLC-97TM1, the relative viability (first compound 0.2 µM) was 0.184, the relative viability (first compound 0.6325 µM) was 0.224 and the relative viability (first compound 2 µM) was 0.0618.

NCI-H1915 was tested, and the relative viability (first compound 0.2 µM) was 0.487, the relative viability (first compound 0.6325 µM) was 0.415 and the relative viability (first compound 2 µM) was 0.492.

NCI-H358 was tested, and the relative viability (first compound 0.2 µM) was 0.0952, the relative viability (first compound 0.6325 µM) was 0.0896 and the relative viability (first compound 2 µM) was 0.0684.

LK-2 was tested, and the relative viability (first compound 0.2 µM) was 0.154, the relative viability (first compound 0.6325 µM) was 0.191 and the relative viability (first compound 2 µM) was 0.179.

EPLC-272H showed a relative viability (first compound 0.2 µM) of 0.25, a relative viability (first compound 0.6325 µM) of 0.21 and a relative viability (first compound 2 µM) of 0.103.

A-427 was tested, and the relative viability (first compound 0.2 µM) was 0.175, the relative viability (first compound 0.6325 µM) was 0.187 and the relative viability (first compound 2 µM) was 0.144.

NCI-H1755 showed a relative viability (first compound 0.2 µM) of 0.601, a relative viability (first compound 0.6325 µM) of 0.585 and a relative viability (first compound 2 µM) of 0.473.

For NCI-H838, the relative viability (first compound 0.2 µM) was 0.311, the relative viability (first compound 0.6325 µM) was 0.233 and the relative viability (first compound 2 µM) was 0.226.

With ABC-1 the relative viability (first compound 0.2 µM) was 0.17, the relative viability (first compound 0.6325 µM) was 0.147 and the relative viability (first compound 2 µM) was 0.127.

In the case of NCI-H2228, the relative viability (first compound 0.2 µM) was 0.196, the relative viability (first compound 0.6325 µM) was 0.129 and the relative viability (first compound 2 µM) was 0.136.

With NCI-H1793 the relative viability (first compound 0.2 µM) was 0.346, the relative viability (first compound 0.6325 µM) was 0.323 and the relative viability (first compound 2 µM) was 0.25.

NCI-H661 gave a relative viability (first compound 0.2 µM) of 0.373, a relative viability (first compound 0.6325 µM) of 0.341 and a relative viability (first compound 2 µM) of 0.352.

EKVX showed a relative viability (first compound 0.2 µM) of 0.391, a relative viability (first compound 0.6325 µM) of 0.36 and a relative viability (first compound 2 µM) of 0.274.

In the case of NCI-H1650, the relative viability (first compound 0.2 µM) was 0.317, the relative viability (first compound 0.6325 µM) was 0.385 and the relative viability (first compound 2 µM) was 0.165.

HCC-827 was tested, and the relative viability (first compound 0.2 µM) was 0.462, the relative viability (first compound 0.6325 µM) was 0.41 and the relative viability (first compound 2 µM) was 0.715.

With NCI-H2170 the relative viability (first compound 0.2 µM) was 0.735, the relative viability (first compound 0.6325 µM) was 0.632 and the relative viability (first compound 2 µM) was 0.543.

With NCI-H1395 the relative viability (first compound 0.2 µM) was 0.819, the relative viability (first compound 0.6325 µM) was 0.699 and the relative viability (first compound 2 µM) was 0.626.

Cell Line NCI-H2009 has a relative viability (first compound 0.2 µM) of 0.77, a relative viability (first compound 0.6325 µM) of 0.704 and a relative viability (first compound 2 µM) of 0.376.

Work on NCI-H1437 yielded a relative viability (first compound 0.2 µM) of 0.433, a relative viability (first compound 0.6325 µM) of 0.396 and a relative viability (first compound 2 µM) of 0.311.
